One series relates to OPM-2 cells. Put plainly: Cell viability assay (OPM-2 cells), CCK-8. Type of series: cell-based. Particulars: Homo sapiens, OPM-2, 24 h, 5% FBS. On the procedure: Cell Viability Assay (OPM-2 cells)
OPM-2 cells were obtained from Deutsche Sammlung von Mikroorganismen and Zellkulturen GmbH (DSMZ). Cells were maintained in the recommended culture medium with 10% FBS at 37° C. and an atmosphere of 5% CO2.
The effect of representative Compounds of the Disclosure on cell viability was determined using Cell Counting Kit-8 (CCK-8) assay (Shanghai Life iLab Bio Technology) according to the manufacturer's instructions. Each tested compound was serially diluted in culture medium, 100 μL of the compound dilution was added into 96-well plates. 100 μL of an OPM-2 cell suspension (20000 cells/well) in culture medium were seeded into the corresponding well of the plate and the cells were incubated at 37° C. in an atmosphere of 5% CO2 for 24 hours. In the next day, 20 μL of CCK-8 solution was added to each well of the plate and incubated for 4 hours.
The plates were read at 450 nm on the microplate spectrophotometer (SpectraMax plus 384, Molecular devices). The readings were normalized to the vehicle cells, and the IC50 was calculated by nonlinear regression analysis using GraphPad Prism 6 software.

In series [1] the target is Mcl-1 protein (residues 171-323) (Homo sapiens (Human), UniProt Q07820). Description: Inhibition of Mcl-1 by fluorescence polarization (FP) competitive binding assay with FAM-Bid tracer. The note with it: 2 nM FAM-Bid, 20 nM Mcl-1, 30 min, read-out: Mc1-1 (FP). The method, then:
Inhibition of Mcl-1 by fluorescence polarization (FP) assay.
The method used a fluorescein labelled peptide (FAM-Bid) which binds to the Mcl-1 protein leading to an increased anisotropy measured in milli-polarization (mP) values using a plate reader.
A 10-points serial dilution of each compound was prepared in DMSO and 5 μL solution was transferred into flat bottomed, 96-well back plate (final DMSO concentration 5%). 120 μL of Buffer (PBS, 0.01% BGG (Sigma Cat. #SRE0011), 0.01% Triton X-100), containing the Fluorescein labelled peptide (Final concentration 2 nM) and Mcl-1 protein (final concentration 20 nM) was then added. […] 10-points dose response curves were plotted with GraphPad software using Sigmoidal Dose-Response Model and the IC50 values were determined by nonlinear regression fitting of the competition curves.
On the technique in general: Fluorescence polarisation rises when a labelled molecule tumbles more slowly, as on binding a larger partner.

Another series concerns NCI-H929 cells. Description: Cell viability assay (NCI-H929 cells), CCK-8. Type of series: cell-based. Particulars: Homo sapiens, NCI-H929, 24 h, 5% FBS. The method, then:
Cell Viability Assay (NCI-H929 cells)
NCI-H929 cells were obtained from American Type Culture Collection (ATCC). Cells were maintained in the recommended culture medium (RPMI 1640) with 10% FBS and 0.05 mM BME at 37° C. and an atmosphere of 5% CO2.
The effect of Compounds on cell viability was determined using Cell Counting Kit-8 (CCK-8) assay according to the manufacturer's instructions. 95 μL of NCI-H929 cell suspension (20000 cells/well) in culture medium were seeded into 96-well plates and cultured 4 hrs. Each tested compound was serially diluted in DMSO, then 5 μL of the compound or DMSO was diluted in 95 μL medium once more. At last, 5 μL of the compound dilution was added to the corresponding well of the cell plate. After the addition of the tested compound, the cells were incubated at 37° C. in an atmosphere of 5% CO2 for 24 hrs. At the end, 10 μL of CCK-8 solution was added to each well of the plate and incubated for 1-4 hours. The plates were read at 450 nm on the microplate reader (BioTek Synergy 1MF). The readings were normalized to the vehicle cells, and the IC50 was calculated by nonlinear regression analysis using GraphPad Prism 6 software.

Series [2] in a line: Microsome clearance assay, human. Type of series: in vitro ADME. The note with it: human, pooled liver microsomes, pH 7.4, human liver microsomes, 0.5 mg/ml protein, 1 mM NADPH, 60 minutes, read-out: Human Liver Microsome Clint (μL/min/mg protein). On the procedure:
(§1) Representative Compounds of the Disclosure were tested in a microsome clearance assay. Pooled liver microsomes (20 mg/ml) from human, male Wister rat, and male CD-1 mouse were obtained from BD Bioscience (Franklin Lakes, N.J. USA). Incubation reaction mixtures contained a final concentration of 0.1M sodium phosphate buffer (pH 7.4), 0.5 mg/ml microsomal protein, 5 μM of test sample and 1 mM NADPH in a total volume of 400 μl. The incubations were done for 60 minutes and 300 μl of the mixtures was transferred to 150 μl of ice cold methanol to terminate reactions. After vortexes for 3 minutes and centrifuged at 4000 rpm at 4° C. for 10 minutes, the clear supernatant was used directly for analysis. The samples were analyzed by Applied Biosystems API 3200 Q TRAP LC/MS/MS system using electrospray ionization mode.

Series [3] is described as follows: Microsome clearance assay, mouse. The note with it: male, CD-1, mouse, pooled liver microsomes, pH 7.4, mouse liver microsomes, 0.5 mg/ml protein, 1 mM NADPH, 60 minutes, read-out: Mouse Liver Microsome Clint (μL/min/mg protein). Type of series: in vitro ADME. The method, then:
as §1
On the technique in general: Microsomes from liver hold many membrane-bound enzymes, among them those of drug oxidation.

Series [4] can be described thus: Microsome clearance assay, rat. Type of series: in vitro ADME. The note with it: male, Wister, rat, pooled liver microsomes, pH 7.4, rat liver microsomes, 0.5 mg/ml protein, 1 mM NADPH, 60 minutes, read-out: Rat Liver Microsome Clint (μL/min/mg protein). The method, then: as §1

Consider 10 compounds from patent US11691989B2, “Macrocyclic indoles as Mcl-1 inhibitors” (ASCENTAGE PHARMA (SUZHOU) CO., LTD., priority 2018, dated 2023).

Mcl-1 protein (residues 171-323), sequence (Q07820 171-323): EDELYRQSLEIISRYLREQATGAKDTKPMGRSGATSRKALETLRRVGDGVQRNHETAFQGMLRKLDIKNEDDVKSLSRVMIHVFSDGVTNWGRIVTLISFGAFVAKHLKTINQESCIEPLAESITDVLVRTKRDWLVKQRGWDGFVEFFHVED

Consider `Cc1c(C(=O)O)n2c3ccc(Cl)c(c13)-c1c(nn(C)c1C)CN(S(C)(=O)=O)Cc1cc(n(C)n1)CSc1cc(c3ccccc3c1)OCCC2` [Cpd. No. 46, (Z)-1^5-chloro-1^3,2^1,2^5,6^1-tetramethyl-4-(methylsulfonyl)-1^11-1,2^1H,6^1H-10-oxa-8-thia-4-aza-1(4,1)-indola-2(4,3),6(3,5)-dipyrazola-9(3,1)-naphthalenacyclotridecaphane-1^2-carboxylic acid], for which the IC50 came out at 637 nM in the series with OPM-2 cells, 8 nM in series [1] and 300 nM in the series on NCI-H929 cells. In addition, the microsomal CLint at 5 μM in series [2] came to 8 µL/min/mg; in series [3], 43.4 µL/min/mg; in series [4], 21.6 µL/min/mg.
Regarding `Cc1ccc2c3c(C)c(C(=O)O)n2CCCOc2cc(cc4cc(F)ccc24)SCc2cc(nn2C)CSCc2nn(C)c(C)c2-c13` [Cpd. No. 22, (Z)-9^6-fluoro-1^3, 1^5,2^1,2^5,6^1-pentamethyl-1^1H,2^1H,6^1H-10-oxa-4,8-dithia-1(4,1)-indola-2(4,3), 6(3,5)-dipyrazola-9(3,1)-naphthalenacyclotridecaphane-1^2-carboxylic acid], the IC50 in the series on OPM-2 cells was determined as 73 nM; in series [1] it was 15 nM; with NCI-H929 cells, 61 nM. Also, the figures for the microsomal CLint at 5 μM in series [2], in series [3] and in series [4] were 11.8 µL/min/mg, 32 µL/min/mg and 30.8 µL/min/mg, respectively.
Take `Cc1c(C(=O)O)n2c3ccc(Cl)c(c13)-c1c(nn(C)c1C)CSCc1cc(n(C(C)C)n1)CSc1cc(c3ccc(F)cc3c1)OCCC2` [Cpd. No. 17, (Z)-1^5-chloro-9^6-fluoro-6^1-isopropyl-1^3,2^1,2^5-trimethyl-1^1H,2^1H,6^1H-10-oxa-4,8-dithia-1(4,1)-indola-2(4,3),6(3,5)-dipyrazola-9(3,1)-naphthalenacyclotridecaphane-1^2-carboxylic acid]: the IC50 worked out at 94 nM with OPM-2 cells and 77 nM in the series on NCI-H929 cells. Besides, the microsomal CLint at 5 μM turned out to be 19.4 µL/min/mg in series [2], 29.2 µL/min/mg in series [3] and 46.6 µL/min/mg in series [4].
As to `Cc1c(C(=O)O)n2c3ccc(Cl)c(c13)-c1c(nn(C)c1C)CN(c1ccccc1)Cc1cc(n(C)n1)CSc1cc(c3ccc(F)cc3c1)OCCC2` [Cpd. No. 55, (Z)-1^5-chloro-9^6-fluoro-1^3,2^1,2^5,6^1-tetramethyl-4-phenyl-1^1H,2^1H,6^1E-10-oxa-8-thia-4-aza-1(4,1)-indola-2(4,3),6(3,5)-dipyrazola-9(3,1)-naphthalenacyclotridecaphane-1^2-carboxylic acid], the IC50 in the series on OPM-2 cells was determined as 744 nM; in series [1], 24 nM; with NCI-H929 cells, 145 nM.
For `Cc1c(C(=O)O)n2c3ccc(Cl)c(c13)-c1c(nn(C)c1C)CN(C(=O)c1ncco1)Cc1cc(n(C)n1)CSc1cc(c3ccc(F)cc3c1)OCCC2` [Cpd. No. 43, (Z)-1^5-chloro-9^6-fluoro-1^3,2^1,2^5,6^1-tetramethyl-4-(oxazole-2-carbonyl)-1^1H,2^1H,6^1H-10-oxa-8-thia-4-aza-1(4,1)-indola-2(4,3),6(3,5)-dipyrazola-9(3,1)-naphthalenacyclotridecaphane-1^2-carboxylic acid], the IC50 came out at 1250 nM in the series with OPM-2 cells, 22 nM in series [1] and 613 nM with NCI-H929 cells.
Consider `Cc1nn(C)c2c1-c1c(Cl)ccc3c1c(C)c(C(=O)O)n3CCCOc1cc(cc3ccccc13)SCc1cc(nn1C)CN(S(C)(=O)=O)C2` [Cpd. No. 48, (Z)-1^5-chloro-1^3,2^1,2^3,6^1-tetramethyl-4-(methylsulfonyl)-1^1H,2^1H,6^1H-10-oxa-8-thia-4-aza-1(4,1)-indola-2(4,5),6(3,5)-dipyrazola-9(3,1)-naphthalenacyclotridecaphane-1^2-carboxylic acid], for which the IC50 with OPM-2 cells was found to be 587 nM; in series [1], 12 nM; in the series with NCI-H929 cells, 243 nM.
In the same order, the values of `Cc1c2c(nn1C)CSCc1cc(n(C)n1)CSc1cc(c3ccc(F)cc3c1)OCCCn1c(C(=O)O)c(F)c3c-2c(Cl)ccc31` [Cpd. No. 19, (Z)-1^5-chloro-1^3,9^6-difluoro-2^1,2^5,6^1-trimethyl-1^1H,2^1H,6^1H-10-oxa-4,8-dithia-1(4,1)-indola-2(4,3),6(3,5)-dipyrazola-9(3,1)-naphthalenacyclotridecaphane-1^2-carboxylic acid] are 449 nM, 10 nM and 444 nM.
For `Cc1c(C(=O)O)n2c3ccc(Cl)c(c13)-c1c(nn(C)c1C)CN(S(=O)(=O)c1cnn(C)c1)Cc1cc(n(C)n1)CSc1cc(c3ccc(F)cc3c1)OCCC2` [Cpd. No. 36, (Z)-1^5-chloro-9^6-fluoro-1^3,2^1,2^5,6^1-tetramethyl-4#1-methyl-1H-pyrazol-4-yl)sulfonyl)-1^1H,2^1H,6^1H-10-oxa-8-thia-4-aza-1(4,1)-indola-2(4,3),6(3,5)-dipyrazola-9(3,1)-naphthalenacyclotridecaphane-1^2-carboxylic acid], the IC50 in the series with OPM-2 cells came to 2020 nM; in series [1], 27 nM; in the series with NCI-H929 cells it was 696 nM.
Turning to `Cc1c(C(=O)O)n2c3ccc(Cl)c(c13)-c1c(nn(C)c1C)CN(S(=O)(=O)c1cccnc1)Cc1cc(n(C)n1)CSc1cc(c3ccc(F)cc3c1)OCCC2` [Cpd. No. 41, (Z)-1^5-chloro-9^6-fluoro-1^3,2^1,2^5,6^1-tetramethyl-4-(pyridin-3-ylsulfonyl)-1^1H,2^1H,6^1H-10-oxa-8-thia-4-aza-1 (4,1)-indola-2(4,3),6(3,5)-dipyrazola-9(3,1)-naphthalenacyclotridecaphane-1^2-carboxylic acid], the IC50 was 275 nM in the series with OPM-2 cells, 17 nM in series [1] and 198 nM in the series with NCI-H929 cells.
In the case of `Cc1c(C(=O)O)n2c3ccc(Cl)c(c13)-c1c(nn(C)c1C)CN(S(=O)(=O)C(F)(F)F)Cc1cc(n(C)n1)CSc1cc(c3ccccc3c1)OCCC2` [Cpd. No. 47, (Z)-1^5-chloro-1^3,2^1,2^5,6^1-tetramethyl-4-((trifluoromethyl)sulfonyl)-1^1H,2^1H,6^1H-10-oxa-8-thia-4-aza-1(4,1)-indola-2(4,3),6(3,5)-dipyrazola-9(3,1)-naphthalenacyclotridecaphane-1^2-carboxylic acid], the IC50 in the series with OPM-2 cells amounted to 229 nM; in series [1] it was 5 nM; with NCI-H929 cells it was 170 nM.
